In patent US8809280B2, “Therapeutic peptides” (Lytix Biopharma AS, priority 2009, dated 2014):
≈ marks a conversion by molar mass, not a printed value. Where two headings read alike, the source gives them in different places.

What was measured:
Type in all cases: cell-based
[1] = test system: Staphylococcus aureus (ATTC 25923); assay: microbe, parasite or virus in culture
Description: (§1) The antimicrobial testing was conducted by TosLab A/S (Tromsø, Norway). Each compound was diluted to 1 mg/ml in water and tested in duplicates at 200, 100, 50, 35, 15, 10, 5, 2.5, 1, 0.5 μg/ml except 4n which was tested at 50, 35, 15, 10, 5, 2.5, 1, 0.5 μg/ml due to solubility problems. All tested compounds were di TFA salts.
(§2) The bacterial strains were grown in 2% Bacto Peptone water until exponential growth was achieved. […] A bacterial concentration of 2×10^6 cfu/ml was used. Both negative control (no peptide) and positive control (Gentamicin) was used for all bacterial strains. Growth or no growth was judged by the turbidity of the wells.
Staphylococcus aureus (ATTC 25923)
(§3) Antimicrobial assays: 200 μg/ml
(§4) Suitable methodologies are described in Example 1.
(§5) Each compound was tested in duplicates at 200, 100, 50, 35, 15, 10, 5, 2.5, 1, 0.5 μg/ml. All tested compounds were di-trifluoroacetic acid salts.

[2] = test system: methicillin resistant Staphylococcus aureus (ATCC 33591); assay: microbe, parasite or virus in culture
Description: as §1, §2
Methicillin resistant Staphylococcus aureus (ATCC 33591)
as §3, §4, §5

[3] = test system: methicillin resistant Staphylococcus epidermidis (ATCC 27626); assay: microbe, parasite or virus in culture
Description: as §1, §2
Methicillin resistant Staphylococcus epidermidis (ATCC 27626)
as §3, §4, §5

[4] = test system: Escherichia coli (ATTC 25922); assay: microbe, parasite or virus in culture; conditions: for MIC E. coli: Example 1, di TFA salts, highest concentration tested 200 μg/ml
Description: as §1, §2
Escherichia coli (ATTC 25922)
as §3, §4, §5

[5] = test system: human red blood cells; assay: cells
Description: The hemolytic testing against human erythrocytes was conducted by Lytix Biopharma A/S (Tromso, Norway). Each compound was tested from a concentration of 1 mg/ml and lower, except 4k and 4n which was only tested up to 0.5 mg/ml due to solubility problems. 8 mL of blood was collected from adult healthy male donors. The blood was divided equally and distributed in a commercial available EDTA containing test tube (BD vacutainer, 7.2 mg K2 EDTA) and in a 10 mL reaction vial containing 40 μL of a heparin solution (1000 U/mL in 0.9% sodium chloride). After 30 minutes the hematocrit of the EDTA treated blood was determined. The heparinized blood was centrifuged for 10 minutes at 1500 rpm and the supernatant removed. Subsequently the RBCs were washed with prewarmed PBS three times, and diluted to 10% hematocrit. The compounds dissolved in PBS (concentration 1 μg/mL to 1000 µg/mL) and the erythrocytes were incubated under agitation at 37° C. for one hour. A positive control with an end concentration of 0.1% TRITON X-100 (nonionic surfactant) and a negative control containing pure PBS buffer were included. The samples were centrifuged (4000 rpm) for 5 minutes and the absorption of the supernatant was measured at 405 nm. The values given in Table 1A correspond to 50% hemolysis.
The plasma fraction of heparinized human blood was first removed by centrifugation and three additional washing steps with 37° C. pre-warmed phosphate buffered saline (PBS). Subsequently, the human RBC were diluted to 10% hematocrit and the β^2,2-amino acid derivatives were dissolved in PBS providing concentrations ranging from 1-1000 μg/mL. The diluted RBC were added to the compound solutions to a final erythrocyte concentration of 1% v/v. PBS and TRITON X-100 (non-ionic surfactant), in a final concentration of 0.1% v/v, were included as negative and positive control. After 1 hour agitated incubation at 37° C. the samples were centrifuged at 4000 rpm for 5 min. Release of hemoglobin was determined by measuring the absorbance of the supernatant at 405 nm. Hemolytic activity was calculated as the ratio of treated sample with β^2,2-amino acid derivative and tenside treated sample according to the formula: […]

[6] = Staphylococcus aureus, Example 2, values separated by / are repeat tests, read-out: Antimicrobial potency (MIC) S. aureus
[7] = Staphylococcus aureus, ATCC 33591 / MRSA, Example 2, values separated by / are repeat tests, read-out: Antimicrobial potency (MIC) MRSA
[8] = Staphylococcus epidermidis, ATCC 27626 / MRSE, Example 2, values separated by / are repeat tests, read-out: Antimicrobial potency (MIC) MRSE
[9] = Escherichia coli, Example 2, values separated by / are repeat tests, read-out: Antimicrobial potency (MIC) E. coli
[10] = ATTC 25923, read-out: MIC S. aureus
[11] = ATCC 33591, read-out: MIC MTRSA
[12] = ATTC 25922, read-out: MIC E. coli
[13] = Example 1, 50% hemolysis of human red blood cells, highest concentration tested 1000 μg/ml
[14] = Homo sapiens, Erythrocyte, Example 2, highest concentration tested 1000 μg/ml, * low solubility in the test media, read-out: Toxicity RBC (EC50)

MIC [1, 6] [µg/mL]	MIC [2, 7] [µg/mL]	MIC [3, 8] [µg/mL]	MIC [4, 9] [µg/mL]	MIC [1, 10] [µM]	MIC ([3]; ATCC 27626, read-out: MIC MRSE) [µM]	MIC MRSA ([2]; ATCC 33591) [µM]	SMILES	MBC S. aureus ([1]; ATTC 25923) [µM]	MBC MRSA ([2]; ATCC 33591) [µM]	MBC MRSE ([3]; ATCC 27626) [µM]	MBC E. coli ([4]; ATTC 25922) [µM]	MIC E. coli ([4]; ATTC 25922)	EC50 RBC [5, 13]	EC50 [5, 14] [µg/mL]	also measured
				289	72		CN(C)CCN1CCN(C(=O)C(CN)(CCCc2ccccc2)CCCc2ccccc2)CC1 [Compound 4a]	>360	>360	>360	>360	— (The notation “—”denotes no detectable activity (MIC or EC50) within the concentration range tested.)	— (The notation “—”denotes no detectable activity (MIC or EC50) within the concentration range tested.)		MIC S. aureus ([1]; Example 1, ATTC 25923, di TFA salts, highest concentration tested 200 μg/ml): — (The notation “—”denotes no detectable activity (MIC or EC50) within the concentration range tested.); MIC [2, 11]: 72 µM; MIC MRSA ([2]; Example 1, ATCC 33591, di TFA salts, highest concentration tested 200 μg/ml): — (The notation “—”denotes no detectable activity (MIC or EC50) within the concentration range tested.); MIC MRSE ([3]; Example 1, ATCC 27626, di TFA salts, highest concentration tested 200 μg/ml): — (The notation “—”denotes no detectable activity (MIC or EC50) within the concentration range tested.); MIC [4, 12]: 289 µM; EC50 RBC ([5]; Example 4, hemolytic activity, human red blood cells, highest concentration tested 1000 μg/ml): — (The notation “—” denotes no detectable activity (MIC or EC50) within the concentration range tested.)
						150 (≈ 81.7 µg/mL)	CN(C)CCN1CCN(C(=O)C(CN)(Cc2ccc(C(F)(F)F)cc2)Cc2ccc(C(F)(F)F)cc2)CC1 [Compound 4b]	301 (≈ 164 µg/mL)	150 (≈ 81.7 µg/mL)	75 (≈ 40.8 µg/mL)	>301	— (The notation “—”denotes no detectable activity (MIC or EC50) within the concentration range tested.)	— (The notation “—”denotes no detectable activity (MIC or EC50) within the concentration range tested.)		Therapeutic index S. aureus ([1]; ATTC 25923): 25; Therapeutic index MRSA ([2]; ATCC 33591): 172; MIC [2, 11]: 6.5 µM; Therapeutic index MRSE ([3]; ATCC 27626): 17; Therapeutic index E. coli ([4]; ATTC 25922): 8.6; MIC [4, 12]: 129 µM; EC50 ([5]; red cells of human): 1120 µM
				147	74	147 (≈ 66.5 µg/mL)	N=C(N)NCCC[C@H](NC(=O)C(CN)(CCc1ccccc1)CCc1ccccc1)C(N)=O [Compound 4e]	147 (≈ 66.5 µg/mL)	147 (≈ 66.5 µg/mL)	74 (≈ 33.5 µg/mL)	>294	— (The notation “—”denotes no detectable activity (MIC or EC50) within the concentration range tested.)	— (The notation “—”denotes no detectable activity (MIC or EC50) within the concentration range tested.)		
				49	35	49 (≈ 23.6 µg/mL)	N=C(N)NCCC[C@H](NC(=O)C(CN)(CCCc1ccccc1)CCCc1ccccc1)C(N)=O [Compound 4f]	49 (≈ 23.6 µg/mL)	49 (≈ 23.6 µg/mL)	49 (≈ 23.6 µg/mL)	>282	— (The notation “—”denotes no detectable activity (MIC or EC50) within the concentration range tested.)	— (The notation “—”denotes no detectable activity (MIC or EC50) within the concentration range tested.)		
				10.2	6.8	6.8 (≈ 3.46 µg/mL)	CC(C)c1ccc(CC(CN)(Cc2ccc(C(C)C)cc2)C(=O)N[C@@H](CCCNC(=N)N)C(N)=O)cc1 [Compound 4j]	6.8 (≈ 3.46 µg/mL)	6.8 (≈ 3.46 µg/mL)	6.8 (≈ 3.46 µg/mL)	136 (≈ 69.2 µg/mL)				MIC [4, 12]: 136 µM; EC50 ([5]; red cells of human): 386 µM
				60	35	49 (≈ 23.6 µg/mL)	Cc1cc(C)cc(CC(CN)(Cc2cc(C)cc(C)c2)C(=O)N[C@@H](CCCNC(=N)N)C(N)=O)c1 [Compound 4l]	49 (≈ 23.6 µg/mL)	49 (≈ 23.6 µg/mL)	21 (≈ 10.1 µg/mL)	>282	— (The notation “—”denotes no detectable activity (MIC or EC50) within the concentration range tested.)	— (The notation “—”denotes no detectable activity (MIC or EC50) within the concentration range tested.)		
				2.9	10.1	2.1 (≈ 1.36 µg/mL)	CC(C)(C)c1cc(CC(CN)(Cc2cc(C(C)(C)C)cc(C(C)(C)C)c2)C(=O)N[C@@H](CCCNC(=N)N)C(N)=O)cc(C(C)(C)C)c1 [Compound 4n]	4.6 (≈ 2.99 µg/mL)	4.6 (≈ 2.99 µg/mL)	3.4 (≈ 2.21 µg/mL)	5.7 (≈ 3.7 µg/mL)				MIC [4, 12]: 5.7 µM; EC50 ([5]; red cells of human): 99 µM

Second part, the compound before the results:

SMILES	MIC [1, 6] [µg/mL]	MIC [2, 7] [µg/mL]	MIC [3, 8] [µg/mL]	MIC [4, 9] [µg/mL]	MIC [1, 10] [µM]	MIC ([3]; ATCC 27626, read-out: MIC MRSE) [µM]	MIC MRSA ([2]; ATCC 33591) [µM]	MBC S. aureus ([1]; ATTC 25923) [µM]	MBC MRSA ([2]; ATCC 33591) [µM]	MBC MRSE ([3]; ATCC 27626) [µM]	MBC E. coli ([4]; ATTC 25922) [µM]	MIC E. coli ([4]; ATTC 25922)	EC50 RBC [5, 13]	EC50 [5, 14] [µg/mL]	also measured
CCCC(CN)(CCC)C(=O)NCCN [Compound 1, N-(2-aminoethyl)-2-(aminomethyl)-2-propyl-pentanamide]	> 200	> 200	> 200	> 200											
CN(C)CCNC(=O)C(CN)(Cc1ccccc1)Cc1ccccc1 [Compound 23, 3-amino-2,2-dibenzyl-N-(2-(dimethylamino)-ethyl)-propanamide]	> 100	> 100	> 100	> 100										> 1000	
CN(C)CCNC(=O)C(CN)(Cc1ccc(C(C)(C)C)cc1)Cc1ccc(C(C)(C)C)cc1 [Compound 24, 3-amino-2,2-bis(4-tert-butylbenzyl)-N-(2-(dimethylamino)-ethyl)-propanamide]	5	5	2.5	5										185	
Cc1cc(C)cc(CC(CN)(Cc2cc(C)cc(C)c2)C(=O)NCCN(C)C)c1 [Compound 25, 3-amino-N-(2-(dimethylamino)-ethyl)-2,2-bis(3,5-dimethylbenzyl)-propanamide]	100	50	10	50										820	
CN(C)CCNC(=O)C(CN)(CCCc1ccccc1)CCCc1ccccc1 [Compound 26, 2-(aminomethyl)-N-(2-(dimethyl-amino)ethyl)-5-phenyl-2-(3-phenyl-propyl)-pentanamide]	35	35	35	100										316	
CN(C)CCNC(=O)C(CN)(Cc1ccc2ccccc2c1)Cc1ccc2ccccc2c1 [Compound 27, 3-amino-N-(2-(dimethylamino)ethyl)-2,2-bis(naphthalen-2-ylmethyl)propanamide]	5	5	5	15										145	
Cc1cc(C)cc(CC(CN)(Cc2cc(C)cc(C)c2)C(=O)N2CCN(CCN(C)C)CC2)c1 [Compound 35, 3-amino-1-(4-(2-(dimethylamino)ethyl)piperazin-1-yl)-2,2-bis(3,5-dimethylbenzyl)propan-1-one]	50	50	35	100											
